For data set [1], the target named is T1, mouse TGR5 receptor (Mus musculus, UniProt Q80SS6).
T1 construct: expressed in transfected cells; host or cells: HEK293-EBNA (293 c18, ATCC CRL10852), Hygromycin B selection
T1 sequence (Q80SS6 1-329): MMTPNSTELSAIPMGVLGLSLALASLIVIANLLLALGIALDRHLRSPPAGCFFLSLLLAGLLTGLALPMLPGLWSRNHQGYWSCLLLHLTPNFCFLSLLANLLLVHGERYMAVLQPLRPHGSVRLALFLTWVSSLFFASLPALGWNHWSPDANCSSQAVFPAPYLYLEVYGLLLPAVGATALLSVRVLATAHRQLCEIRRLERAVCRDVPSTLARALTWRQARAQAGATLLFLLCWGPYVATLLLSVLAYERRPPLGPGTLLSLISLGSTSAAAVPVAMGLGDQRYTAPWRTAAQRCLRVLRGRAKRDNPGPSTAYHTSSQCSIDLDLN
Kind of data set: Mouse TGR5 cAMP production assay (luminescent, DiscoveRx cAMP XS+). It is filed as cell-based. As to conditions: HEK293-EBNA cells overexpressing mouse TGR5, luminescent cAMP XS+; coded A-D; read-out: Mouse TGR5 Lum. cAMP Activity (EC50). An outline of the steps:
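HEK293-EBNA cells stably expressing mouse TGR5 were suspended in serum-free DMEM with 500 μM IBMX and preincubated 20 min with cAMP antibody. They were then exposed to half-log compound dilutions for 1 h at room temperature. cAMP measured by enzyme-fragment complementation luminescence after overnight incubation; EC50 derived.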
In general terms: cAMP levels reflect the balance of adenylyl cyclase and phosphodiesterase activity.

Data set [2] has as its system GLP-1 plasma level in DIO mice. The experiment in a line: GLP-1 levels after multiple days of dosing in DIO mice. Format: in vivo, mouse. The conditions noted are these: 12 days BID oral, in combination with linagliptin, 6 h after final dose. How it is done: GLP-1 Levels after Multiple Days of Dosing Compounds
Compounds of the present invention were dosed for multiple days and were evaluated to determine if they produce sustained GLP-1 levels. In this example, the protocol from Example 66 was utilized. In week 2 of the study, mice were euthanized and blood was collected 6 hours after the final dose of compound. For the GLP-1 assay, 200-250 μL of blood was placed in an EDTA K^2+ tube containing 5 μL of 40 mg/mL aprotinin (Sigma A1153) and 1 μL of 10 mM sitagliptin (Sigma S8576) and plasma was separated by centrifugation. Plasma samples were stored at −20° C. until analysis. The active form of GLP-1 [GLP-1 (7-36) amide] was analyzed using Meso Scale Discovery System according to the manufacturer's directions (item number K150HYC). Values of p<0.05 are considered statistically significant.

Data set [3] is described as follows: Absorption vs. first pass metabolism: Cmax with and without 1-aminobenzotriazole (ABT) pre-treatment. It is filed as in vivo, mouse. The conditions noted are these: ICR, mouse, plasma; lean mice receiving ABT (150 mg/kg) 2 h before compound, 10 mg/kg oral. How it is done:
Absorption Vs. First Pass Metabolism
In this study, the absorption was examined as compared to first pass metabolism of the compounds of the present invention. ICR mice (Hilltop) were pre-treated with 1-aminobenzotriazole (ABT), a nonselective inhibitor of cytochrome P450 enzymes to inhibit Cyp450-mediated degradation of the compounds in liver.
ABT was administered at 150 mg/kg in 5 mL/kg of 0.04% ethanol in 0.5% methyl cellulose (w/v) by oral gavage, 2 hours prior to test compound administration. The compounds 20AA and 20AC were administered by oral gavage at 10 mg/kg in 10 mL/kg of 20% PEG400/80% (0.5% (w/v) CMC containing 0.25% (v/v) Tween 80) (v/v), 2 hours after the ABT treatment. Blood was collected via orbital bleeding at predose, 0.25, 0.5, 1, 2, and 4 hours post-dose and the quantification of compound levels in plasma was accomplished by means of LC-MS/MS analysis as described in Example 59. Reference compound “Propranolol” that is known to be metabolized by Cyp450 was used as a positive control.
FIG. 4 depicts the Cmax (nM) of the compounds of the present invention with and without ABT pre-treatment.

The nature of data set [4]: Comparison of PK in DIO mice and lean mice. Format: in vivo, mouse. As to conditions: for Cmax / Tmax / AUC(0-t): mouse, plasma, po; for AUC(0-t): read-out: AUC (0-4 h). The procedure:
Comparison of PK in DIO Mice and Lean Mice
The PK characteristics of Compound 20AA were examined in non-fasted lean C57BL/6N and DIO mice (Taconic). Compound 20AA was orally administered to both groups at 10 mg/kg by oral gavage and plasma concentration of the compound was determined as described in Example 59.
In addition, PK parameters were determined for Compound 20AA (i.e., Cmax, Tmax and AUC) following oral administration in four groups of mice: (i) fasted lean mice; (ii) non-fasted lean mice; (iii) non-fasted DIO mice; and (iv) lean mice receiving ABT.

Setting [5] is: C57BL/6N, 10 mg/kg, DIO mice, non-fasted, 10 mpk.
[6] abbreviates: C57BL/6N, 10 mg/kg, Lean mice, non-fasted, 10 mpk.
Setting [7] is: C57BL/6N, 10 mg/kg, Non-fasted DIO mice, 10 mg/kg oral.
Setting [8] is: C57BL/6N, 10 mg/kg, Non-fasted Lean mice, 10 mg/kg oral.
The mark [9] stands for this setting: Fasted Lean mice, oral administration.

Read-outs that look alike come from different tables or passages of the source. Where only a bound is given, the exact number is not on record here.

Regarding `CCc1cnccc1-c1cccc(C(C)(C)NS(=O)(=O)c2ccccc2C(F)(F)F)c1` [Compound 5, N-(2-(3-(3-ethylpyridin-4-yl)phenyl)propan-2-yl)-2-(trifluoromethyl)benzenesulfonamide], in data set [1], the EC50 – broadly, the concentration giving half of the maximal effect – was less than 100 nM.
Still for that read-out and setting: the figure for `Cc1cnccc1-c1cccc(C(C)(C)NS(=O)(=O)c2cccc(C(F)(F)F)c2)c1` [Compound 5AA, N-(2-(3-(3-methylpyridin-4-yl)phenyl)propan-2-yl)-3-(trifluoromethyl)benzenesulfonamide] is less than 100 nM.
As to `CCc1cnccc1-c1cccc([C@H](C)N(CCCC(=O)NCCS(=O)(=O)NCC(=O)O)S(=O)(=O)c2ccccc2C(F)(F)F)c1` [Compound 20BG], the “GLP-1 plasma level versus vehicle” value in data set [2] is listed as “significantly increased”.
For the compound `Cc1cnccc1-c1cccc(C(C)(C)N(CCCC(=O)NCCS(=O)(=O)O)S(=O)(=O)c2ccccc2C(F)(F)F)c1` [Compound 20AA, 2-(4-(N-(2-(3-(3-methylpyridin-4-yl)phenyl)propan-2-yl)-2-(trifluoromethyl)phenylsulfonamido)butanamido)ethanesulfonic acid], the Cmax (in general, the peak of the concentration-time curve) came out at 2.6 nM in data set [3]; 1.7 nM in data set [4] (setting [5]); 3 nM in data set [4] (setting [6]); 1.7 nM in data set [4] (setting [7]); 3 nM in data set [4] (setting [8]); 7.2 nM in data set [4] (setting [9]). In addition, the Tmax – broadly, the time at which the peak concentration occurs – in data set [3] came out at 15 min; in data set [4] (setting [5]), 1 h; in data set [4] (setting [6]), 1 h; in data set [4] (setting [7]), 1 h; in data set [4] (setting [8]), 0.25 h; in data set [4] (setting [9]), 1 h. Moreover, the AUC(0-t) in data set [4] (setting [7]) is 7.6 ng·h/mL; in data set [4] (setting [8]) it was 4 ng·h/mL; in data set [4] (setting [9]), 26 ng·h/mL. For the same compound, the “PK profile (Cmax, Tmax, AUC)” value in data set [4] (lean and DIO mice, fasted or non-fasted, oral administration) was “low PK profile”.

For the origin of these results see patent US11236055B2 (Venenum Biodesign, LLC, priority 2016, dated 2022).
